Columns and labels:
Type in all cases: ADME, organism-based
Conditions in all cases: in vivo
Mus musculus [1] = organism: Mus musculus; assay: Percent of radioactivity that accumulated in kidney of mice at 24 h
Mus musculus [2] = organism: Mus musculus; assay: Percent of blood clearance in bone of mice at 24 hr
Mus musculus [3] = organism: Mus musculus; assay: Percent of blood clearance in bone of mice at 0.5 h

ID/g (Mus musculus [1]): 0.54%
ID/g (Mus musculus [2]): 0.05%
ID/g (Mus musculus [3]): 1.47%
Substance: 1,4,7,10tetraaza-Cyclododecane-1,4,7,10-tetracarboxylic acid with yttrium
